Assay results reported in publication PMC11876772 (Materials Today Bio, 2025).

Legend:
[1] = tested on: TLR7/MyD88/NF-кB and MAPK pathways in BMDCs; format: cell-based, ICR mice
in vitro = details: chicken

In the case of `CC(C)Cn1cnc2c(N)nc3ccccc3c21` [IMQ, imiquimod], the “protein expression of TLR7 and MyD88 compared with un-treated BMDCs” value [1] is reported as “induced the high protein expression of TLR7 (P < 0.001) and MyD88 (P < 0.001)” and the hemolysis (in vitro) is reported as roughly 37.5%.
